{"source": "paper PMC9591056", "about": "“Inhibitors of ApiAP2 protein DNA binding exhibit multistage activity against Plasmodium parasites” (PLOS Pathogens, 2022)", "key": {"AP2-I D3": {"target": "T1, AP2-I D3 (Plasmodium falciparum, UniProt Q8IJW6)", "T1 construct": "gene PF3D7_1007700", "T1 sequence (Q8IJW6 entry or part of it)": "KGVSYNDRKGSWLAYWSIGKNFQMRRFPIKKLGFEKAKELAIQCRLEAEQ", "experiment": "competitive EMSA, inhibition of DNA binding", "details": "300 uM compound; cognate biotinylated dsDNA probe; 10 mM Tris pH 7.5, 50 mM KCl, 6 mM MgCl2"}, "AP2-EXP AP2 domain [1]": {"target": "T2, AP2-EXP AP2 domain (Plasmodium falciparum, UniProt Q8IKH2)", "T2 construct": "gene PF3D7_1466400", "T2 sequence (Q8IKH2 63-123)": "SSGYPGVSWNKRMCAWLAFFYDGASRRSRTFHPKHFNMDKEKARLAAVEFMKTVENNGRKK", "experiment": "competitive EMSA, inhibition of DNA binding", "details": "300 uM compound, biotinylated cognate dsDNA probe, 10 mM Tris pH 7.5, 50 mM KCl, 6 mM MgCl2"}, "PfSIP2 D1": {"target": "T3, PfSIP2 D1 (Plasmodium falciparum, UniProt C6KSN9)", "T3 construct": "gene PF3D7_0604100", "T3 sequence (C6KSN9 1729-1788 limits assumed)": "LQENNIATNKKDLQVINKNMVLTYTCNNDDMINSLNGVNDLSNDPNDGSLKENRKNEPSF", "experiment": "competitive EMSA, inhibition of DNA binding", "details": "300 uM compound; cognate biotinylated dsDNA probe; 10 mM Tris pH 7.5, 50 mM KCl, 6 mM MgCl2"}, "PbAP2-Sp": {"target": "T4, PbAP2-Sp (Plasmodium berghei, UniProt A0A509ASL1)", "T4 construct": "gene PBANKA_1329800", "T4 sequence (A0A509ASL1 175-230 limits assumed)": "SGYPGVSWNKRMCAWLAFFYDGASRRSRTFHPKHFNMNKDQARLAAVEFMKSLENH", "experiment": "competitive EMSA, inhibition of DNA binding", "details": "300 uM compound; cognate biotinylated dsDNA probe; 10 mM Tris pH 7.5, 50 mM KCl, 6 mM MgCl2"}, "AP2-HS D1": {"target": "T5, AP2-HS D1 (Plasmodium falciparum, UniProt C0H5G5)", "T5 construct": "gene PF3D7_1342900", "T5 sequence (C0H5G5 2363-2413 limits assumed)": "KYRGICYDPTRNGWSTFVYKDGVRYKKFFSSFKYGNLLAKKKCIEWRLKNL", "experiment": "competitive EMSA, inhibition of DNA binding", "details": "300 uM compound; cognate biotinylated dsDNA probe; 10 mM Tris pH 7.5, 50 mM KCl, 6 mM MgCl2"}, "AtERF1 AP2/ERF domain": {"target": "AtERF1 AP2/ERF domain (Arabidopsis thaliana, UniProt O80337 147-205)", "sequence (O80337 147-205)": "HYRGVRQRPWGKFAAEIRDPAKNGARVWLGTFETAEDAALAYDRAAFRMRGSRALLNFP", "experiment": "EMSA; 300 uM Compound A; EMSA: 10 mM Tris pH 7.5, 50 mM KCl, 1 mM DTT, 6 mM MgCl2, 60 ng/uL poly dIdC, 65 ng BSA; 125 ng AP2-EXP or PbAP2-Sp, 40-150 fmol probe; 15 min protein + compound, then 5 min with DNA; temperature not stated", "details": "protein: recombinant; (pGex4t-1); label: 5' biotin on forward strand; blunt"}, "AP2-EXP AP2 domain [2]": {"target": "AP2-EXP AP2 domain (Plasmodium falciparum, UniProt Q8IKH2 64-118)", "experiment": "EMSA; 300 uM Compound D; EMSA: 10 mM Tris pH 7.5, 50 mM KCl, 1 mM DTT, 6 mM MgCl2, 60 ng/uL poly dIdC, 65 ng BSA; 125 ng AP2-EXP or PbAP2-Sp, 40-150 fmol probe; 15 min protein + compound, then 5 min with DNA; temperature not stated", "details": "protein: recombinant; (expressed as in cited work); label: 5' biotin on forward strand; blunt"}}}
{"molecule": "Cc1cccc(-c2nc3cc(NC(=O)c4ccc([N+](=O)[O-])o4)ccc3o2)c1", "note": "[B-4, Compound B-4]", "values": [{"measurement": "competitive EMSA, inhibition of DNA binding", "setting": "AP2-I D3", "value": "prevent DNA binding by AP2-EXP (Fig 2A) and AP2-I D3 (S7A Fig)"}, {"measurement": "competitive EMSA, inhibition of DNA binding", "setting": "AP2-EXP AP2 domain [1]; also titrated at 25, 50 and 150 uM", "value": "Compounds B-1 and B-4 prevent DNA binding by AP2-EXP (Fig 2A)"}]}
{"molecule": "CCc1ccc(-c2nc3cc(NC(=O)c4ccc([N+](=O)[O-])o4)ccc3o2)cc1", "note": "[B, Compound B]", "values": [{"measurement": "competitive EMSA, inhibition of DNA binding", "setting": "PfSIP2 D1", "value": "Compounds B, C and I prevent DNA binding by PfSIP2 D1 (S5C Fig)"}, {"measurement": "competitive EMSA, inhibition of DNA binding", "setting": "AP2-I D3", "value": "Compounds A, B, C, and I can prevent DNA binding by AP2-I D3"}, {"measurement": "competitive EMSA, inhibition of DNA binding", "setting": "PbAP2-Sp", "value": "Compounds B and C block PbAP2-Sp DNA binding in vitro"}, {"measurement": "competitive EMSA, inhibition of DNA binding", "setting": "AP2-HS D1", "value": "Compounds B and I prevent DNA binding by AP2-HS D1 (S5B Fig)"}]}
{"molecule": "Cc1ccc(-c2nc3cc(NC(=O)c4ccc([N+](=O)[O-])o4)ccc3o2)cc1Cl", "note": "[B-1, Compound B-1]", "values": [{"measurement": "competitive EMSA, inhibition of DNA binding", "setting": "AP2-I D3", "value": "prevent DNA binding by AP2-EXP (Fig 2A) and AP2-I D3 (S7A Fig)"}, {"measurement": "competitive EMSA, inhibition of DNA binding", "setting": "AP2-EXP AP2 domain [1]", "value": "Compounds B-1 and B-4 prevent DNA binding by AP2-EXP (Fig 2A)"}]}
{"molecule": "AtERF1 gel shift probe (dsDNA) DNA 1: TTTAACTTTAATTATGAATATGAGGCGGCGGGTTCGTGATCAAC DNA 2: GTTGATCACGAACCCGCCGCCTCATATTCATAATTAAAGTTAAA", "values": [{"measurement": "binding result", "setting": "AtERF1 AP2/ERF domain", "value": "binds"}]}
{"molecule": "AP2-EXP gel shift probe (dsDNA) DNA 1: ACTACACACCTAACTATGCATGCATCAATATAGTGGATTA DNA 2: TAATCCACTATATTGATGCATGCATAGTTAGGTGTGTAGT", "values": [{"measurement": "binding result", "setting": "AP2-EXP AP2 domain [2]", "value": "binds"}]}
